From PubChem BioAssay AID1963839 (Molecular Pharmacology Branch, DTP, NCI, 2024)

System: 817829-284-R-J1-PDC complex spheroid viability
Test: Anticancer human tumor 817829-284-R-J1-PDC patient-derived colon adenocarcinoma cell line growth inhibition [POLQ]
Conditions: for IC50: curve of first compound; for viability, T/C: stronger effect = lower value
In short: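 Complex spheroid viability model combining PDC tumour cells with endothelial (HUVEC) and MSC stromal cells. Novobiocin, ART-558 or RP6685 were tested singly and in combination with standard and investigational anticancer drugs. Each was titrated in half-log steps from near clinical Cmax, or from 10 microM where Cmax was unknown.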

[1] = second compound 0.0316 µM, first compound 0.00316 µM
[2] = second compound 0.0316 µM, first compound 0.01 µM
[3] = second compound 0.0316 µM, first compound 0.0316 µM
[4] = second compound 0.0316 µM, first compound 0.1 µM
[5] = second compound 0.0316 µM, first compound 0.316 µM
[6] = second compound 0.0316 µM, first compound 1 µM
[7] = second compound 0.1 µM, first compound 0.00316 µM
[8] = second compound 0.1 µM, first compound 0.01 µM
[9] = second compound 0.1 µM, first compound 0.0316 µM
[10] = second compound 0.1 µM, first compound 0.1 µM
[11] = second compound 0.1 µM, first compound 0.316 µM
[12] = second compound 0.1 µM, first compound 1 µM
[13] = second compound 0.316 µM, first compound 0.00316 µM
[14] = second compound 0.316 µM, first compound 0.01 µM
[15] = second compound 0.316 µM, first compound 0.0316 µM
[16] = second compound 0.316 µM, first compound 0.1 µM
[17] = second compound 0.316 µM, first compound 0.316 µM
[18] = second compound 0.316 µM, first compound 1 µM
[19] = second compound 1 µM, first compound 0.00316 µM
[20] = second compound 1 µM, first compound 0.01 µM
[21] = second compound 1 µM, first compound 0.0316 µM
[22] = second compound 1 µM, first compound 0.1 µM
[23] = second compound 1 µM, first compound 0.316 µM
[24] = second compound 1 µM, first compound 1 µM
[25] = second compound 3.16 µM, first compound 0.00316 µM
[26] = second compound 3.16 µM, first compound 0.01 µM
[27] = second compound 3.16 µM, first compound 0.0316 µM
[28] = second compound 3.16 µM, first compound 0.1 µM
[29] = second compound 3.16 µM, first compound 0.316 µM
[30] = second compound 3.16 µM, first compound 1 µM
[31] = second compound 10 µM, first compound 0.00316 µM
[32] = second compound 10 µM, first compound 0.01 µM
[33] = second compound 10 µM, first compound 0.0316 µM
[34] = second compound 10 µM, first compound 0.1 µM
[35] = second compound 10 µM, first compound 0.316 µM
[36] = second compound 10 µM, first compound 1 µM
[37] = second compound 0.0316 µM, first compound 3.16 µM
[38] = second compound 0.0316 µM, first compound 10 µM
[39] = second compound 0.1 µM, first compound 3.16 µM
[40] = second compound 0.1 µM, first compound 10 µM
[41] = second compound 0.316 µM, first compound 3.16 µM
[42] = second compound 0.316 µM, first compound 10 µM
[43] = second compound 1 µM, first compound 3.16 µM
[44] = second compound 1 µM, first compound 10 µM
[45] = second compound 3.16 µM, first compound 3.16 µM
[46] = second compound 3.16 µM, first compound 10 µM
[47] = second compound 10 µM, first compound 3.16 µM
[48] = second compound 10 µM, first compound 10 µM
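Further: spheroids exposed to compounds for 7 days.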
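Wherever viability, T/C is given: 100% = DMSO vehicle-treated spheroids.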

C=CCn1c(=O)c2cnc(Nc3ccc(N4CCN(C)CC4)cc3)nc2n1-c1cccc(C(C)(C)O)n1 + COC1C(OC(N)=O)C(O)C(Oc2ccc3c(O)c(NC(=O)c4ccc(O)c(CC=C(C)C)c4)c(=O)oc3c2C)OC1(C)C gave an IC50 (second compound 0.0316 µM) of 0.161 µM, an IC50 (second compound 0.1 µM) of 0.144 µM and an IC50 (second compound 0.316 µM) of 0.176 µM. It also gave an IC50 (second compound 1 µM) of 0.19 µM, an IC50 (second compound 3.16 µM) of 0.176 µM and an IC50 (second compound 10 µM) of 0.133 µM. The viability, T/C [1] was 93%, the viability, T/C [2] was 74.8% and the viability, T/C [3] was 91.3%. For the same compound, the viability, T/C [4] was 58%, the viability, T/C [5] was 33.6% and the viability, T/C [6] was 7.07%. For the same compound, the viability, T/C [7] was 107%, the viability, T/C [8] was 91.4% and the viability, T/C [9] was 87.2%. The viability, T/C [10] was 55.5%, the viability, T/C [11] was 32.3% and the viability, T/C [12] was 6.47%. It also gave a viability, T/C [13] of 100%, a viability, T/C [14] of 96.8% and a viability, T/C [15] of 96.6%. For the same compound, the viability, T/C [16] was 72%, the viability, T/C [17] was 26.7% and the viability, T/C [18] was 6%. For the same compound, the viability, T/C [19] was 82.8%, the viability, T/C [20] was 95.9% and the viability, T/C [21] was 110%. For the same compound, the viability, T/C [22] was 70.6%, the viability, T/C [23] was 32.2% and the viability, T/C [24] was 7.21%. For the same compound, the viability, T/C [25] was 109%, the viability, T/C [26] was 107% and the viability, T/C [27] was 83%. For the same compound, the viability, T/C [28] was 69.7%, the viability, T/C [29] was 32.2% and the viability, T/C [30] was 7.29%. For the same compound, the viability, T/C [31] was 67.5%, the viability, T/C [32] was 96.1% and the viability, T/C [33] was 69.7%. It also gave a viability, T/C [34] of 55.2%, a viability, T/C [35] of 30.8% and a viability, T/C [36] of 8.11%.

In the case of CCCS(=O)(=O)Nc1ccc(F)c(C(=O)c2c[nH]c3ncc(-c4ccc(Cl)cc4)cc23)c1F + COC1C(OC(N)=O)C(O)C(Oc2ccc3c(O)c(NC(=O)c4ccc(O)c(CC=C(C)C)c4)c(=O)oc3c2C)OC1(C)C, the IC50 (second compound 0.0316 µM) is reported as 2.41 µM, the IC50 (second compound 0.1 µM) is reported as 3.34 µM and the IC50 (second compound 0.316 µM) is reported as 4.39 µM. For the same compound, the IC50 (second compound 1 µM) was 2.9 µM, the IC50 (second compound 3.16 µM) was 5.23 µM and the IC50 (second compound 10 µM) was 3.52 µM. The viability, T/C [3] was 76%, the viability, T/C [4] was 77% and the viability, T/C [5] was 73.6%. For the same compound, the viability, T/C [6] was 73.4%, the viability, T/C [37] was 42.9% and the viability, T/C [38] was 16.6%. For the same compound, the viability, T/C [9] was 76.6%, the viability, T/C [10] was 74.8% and the viability, T/C [11] was 43.4%. It also gave a viability, T/C [12] of 86.7%, a viability, T/C [39] of 51.9% and a viability, T/C [40] of 12.8%. For the same compound, the viability, T/C [15] was 48.3%, the viability, T/C [16] was 71.4% and the viability, T/C [17] was 58.7%. The viability, T/C [18] was 71.2%, the viability, T/C [41] was 68.5% and the viability, T/C [42] was 15.9%. It also gave a viability, T/C [21] of 86.4%, a viability, T/C [22] of 80.6% and a viability, T/C [23] of 48.5%. For the same compound, the viability, T/C [24] was 74.6%, the viability, T/C [43] was 51.6% and the viability, T/C [44] was 13%. For the same compound, the viability, T/C [27] was 76.3%, the viability, T/C [28] was 76.8% and the viability, T/C [29] was 89.3%. For the same compound, the viability, T/C [30] was 79.1%, the viability, T/C [45] was 76.3% and the viability, T/C [46] was 16.1%. It also gave a viability, T/C [33] of 82%, a viability, T/C [34] of 86.4% and a viability, T/C [35] of 62.1%. It also gave a viability, T/C [36] of 86.4%, a viability, T/C [47] of 53.8% and a viability, T/C [48] of 13%.

For CNCc1ccc(-c2[nH]c3cc(F)cc4c3c2CCNC4=O)cc1 + COC1C(OC(N)=O)C(O)C(Oc2ccc3c(O)c(NC(=O)c4ccc(O)c(CC=C(C)C)c4)c(=O)oc3c2C)OC1(C)C, the IC50 (second compound 0.0316 µM) was 6.63 µM, the IC50 (second compound 0.1 µM) was over 10 µM and the IC50 (second compound 0.316 µM) was over 10 µM. For the same compound, the IC50 (second compound 1 µM) was 5.24 µM, the IC50 (second compound 3.16 µM) was 5.17 µM and the IC50 (second compound 10 µM) was 5.38 µM. It also gave a viability, T/C [3] of 95.8%, a viability, T/C [4] of 94% and a viability, T/C [5] of 83%. It also gave a viability, T/C [6] of 76.8%, a viability, T/C [37] of 68.8% and a viability, T/C [38] of 40.2%. The viability, T/C [9] was 73.3%, the viability, T/C [10] was 102% and the viability, T/C [11] was 86%. For the same compound, the viability, T/C [12] was 55.2%, the viability, T/C [39] was 72.8% and the viability, T/C [40] was 53.3%. For the same compound, the viability, T/C [15] was 99.1%, the viability, T/C [16] was 108% and the viability, T/C [17] was 83.7%. It also gave a viability, T/C [18] of 80.4%, a viability, T/C [41] of 74.3% and a viability, T/C [42] of 51.5%. The viability, T/C [21] was 125%, the viability, T/C [22] was 91.6% and the viability, T/C [23] was 107%. The viability, T/C [24] was 81.8%, the viability, T/C [43] was 80.3% and the viability, T/C [44] was 22%. It also gave a viability, T/C [27] of 119%, a viability, T/C [28] of 109% and a viability, T/C [29] of 98.9%. It also gave a viability, T/C [30] of 103%, a viability, T/C [45] of 58.5% and a viability, T/C [46] of 38.2%. For the same compound, the viability, T/C [33] was 98%, the viability, T/C [34] was 99% and the viability, T/C [35] was 75.1%. It also gave a viability, T/C [36] of 90.1%, a viability, T/C [47] of 73.9% and a viability, T/C [48] of 23.1%.

Work on Cn1ncnc1[C@H]1c2n[nH]c(=O)c3cc(F)cc(c23)N[C@@H]1c1ccc(F)cc1 + COC1C(OC(N)=O)C(O)C(Oc2ccc3c(O)c(NC(=O)c4ccc(O)c(CC=C(C)C)c4)c(=O)oc3c2C)OC1(C)C yielded an IC50 (second compound 0.0316 µM) of 0.031 µM, an IC50 (second compound 0.1 µM) of 0.00486 µM and an IC50 (second compound 0.316 µM) of 0.0198 µM. The IC50 (second compound 1 µM) was 0.024 µM, the IC50 (second compound 3.16 µM) was 0.0102 µM and the IC50 (second compound 10 µM) was 0.031 µM. It also gave a viability, T/C (second compound 0.0316 µM, first compound 0.000316 µM) of 107%, a viability, T/C (second compound 0.0316 µM, first compound 0.001 µM) of 63.2% and a viability, T/C [1] of 72.3%. It also gave a viability, T/C [2] of 62.6%, a viability, T/C [3] of 55.5% and a viability, T/C [4] of 36.5%. The viability, T/C (second compound 0.1 µM, first compound 0.000316 µM) was 103%, the viability, T/C (second compound 0.1 µM, first compound 0.001 µM) was 109% and the viability, T/C [7] was 52.9%. For the same compound, the viability, T/C [8] was 60.4%, the viability, T/C [9] was 39.9% and the viability, T/C [10] was 35.4%. It also gave a viability, T/C (second compound 0.316 µM, first compound 0.000316 µM) of 104%, a viability, T/C (second compound 0.316 µM, first compound 0.001 µM) of 94.9% and a viability, T/C [13] of 74.4%. For the same compound, the viability, T/C [14] was 65.3%, the viability, T/C [15] was 38% and the viability, T/C [16] was 36.2%. The viability, T/C (second compound 1 µM, first compound 0.000316 µM) was 94.9%, the viability, T/C (second compound 1 µM, first compound 0.001 µM) was 107% and the viability, T/C [19] was 85.4%. The viability, T/C [20] was 65%, the viability, T/C [21] was 47.8% and the viability, T/C [22] was 31.8%. The viability, T/C (second compound 3.16 µM, first compound 0.000316 µM) was 86.8%, the viability, T/C (second compound 3.16 µM, first compound 0.001 µM) was 102% and the viability, T/C [25] was 97.7%. It also gave a viability, T/C [26] of 50.1%, a viability, T/C [27] of 49.9% and a viability, T/C [28] of 40.3%. For the same compound, the viability, T/C (second compound 10 µM, first compound 0.000316 µM) was 137%, the viability, T/C (second compound 10 µM, first compound 0.001 µM) was 124% and the viability, T/C [31] was 69.8%. The viability, T/C [32] was 71.6%, the viability, T/C [33] was 67.2% and the viability, T/C [34] was 22.3%.
